# Tested on: U-87MG cells
# Experiment: Immunoblotting of protein expression in peptide-treated cells
# Format: cell-based, human
# Conditions: 12 h
# Experimental: U-87 MG cells were treated with the indicated concentrations of D-Δ(1-18)N-Ter-Antp peptide in serum-free DMEM for 6 h. Then cells were lysed in lysis buffer (100 mM Tris/HCl pH 8.0, 5% sodium dodecyl sulfate [SDS]), supplemented with a protease inhibitor cocktail (Calbiochem, San Diego, CA, USA). The lysates were vortexed and heated at 70 °C for 10 min. Finally, cell lysates were centrifuged (15,000× g, 10 min at 4 °C), and the protein concentration of the supernatant was determined according to the Lowry assay with a slight modification. Protein samples were stored at −80 °C until subsequent gel electrophoresis. Protein samples (20 μg) were resolved by SDS-polyacrylamide gel electrophoresis and immunoblotted using selected primary antibodies (sources and dilutions are listed in Table S1), followed by incubation with appropriate horseradish peroxidase (HRP)-conjugated secondary antibodies (Table S1). Proteins were detected using the EZ-ECL Enhanced Chemiluminescence Detection Kit (Biological Industries, Beit Haemek, Israel). Band intensities were analyzed with densitometry using FUSION-FX software (Vilber Lourmat, Collegien, France), and the values were normalized to β-actin.
# Figure 3 The D-Δ(1-18)N-Ter-Antp peptide induced autophagy and cellular senescence and altered the expression of apoptosis-related proteins. (A,B) U-87MG cells were treated with the indicated concentrations of D-Δ(1-18)N-Ter-Antp peptide for 12 h and then were subjected to immunoblotting for caspase-9, AIF, Bcl-xL, Bcl-2, and Bax and the relative expression level was quantified (B). (C,D) U-87MG cells were treated with the indicated concentrations of D-Δ(1-18)N-Ter-Antp peptide for 12 h and then subjected to immunoblotting for the autophagy markers LC3-I and LC3-II (C) and LC3-II quantification (D). (E,F) U-87MG cells were treated with the indicated concentrations of D-Δ(1-18)N-Ter-Antp peptide for 12 h and then subjected to β-gal activity (blue). Mouse embryonic fibroblast cells at passage 10 (MEF-P10) served as a positive control of senescent cells. Quantification of β-gal staining intensity (F). Data are presented as the mean ± SD, n = 3, * p < 0.05; ** p < 0.01; *** p < 0.001 versus control group. NS, non-specific. The images were captured at 40× and two folds enlargement is shown.
# Figure 4 The D-Δ(1-18)N-Ter-Antp induced the altered expression of metabolism and signaling-related proteins. (A,B) U-87MG cells were treated with the indicated concentrations of D-Δ(1-18)N-Ter-Antp peptide at the indicated concentration for 12 h and then subjected to immunoblot analyses of cell lysates for VDAC1, HK-I, ATPsyn5a, and citrate synthase (CS) (A). Quantification of the immunoblot (B). (C–E) Immunoblotting of the indicated proteins c-Jun, NF-κB-p65, p53, CDK2 and IkB-a (C) and their quantitative analysis (D,E). The results were from triplicates of different biological repeats (n = 3) and are presented as the means ± SEM. * p ≤ 0.05; ** p ≤ 0.01; *** p ≤ 0.001.
# [1] = immunoblot normalized to β-actin, n = 3
substance,measurement,setting,value
19-FTKGYGFGL-26- RQIKIWFQNRRMKWKK [D-Δ(1-18)N-Ter-Antp],"Autophagy, appearance of LC3-II",immunoblot for LC3-I and LC3-II,induced
same,Decrease of expression of IκBα,[1],2 fold
same,Decrease of expression of cyclin-dependent kinase 2 (CDK-2),[1],2 fold
same,Enhanced expression of c-Jun,[1],6 fold
same,Enhanced expression of nuclear factor kappa B (NF-κB p65),[1],3.5 fold
same,Enhanced expression of p53,[1],3 fold
